US12295997B2, “Prostate neoantigens and their uses” (Janssen Biotech, Inc., priority 2020, dated 2025)

Tests used:
[1] = system: CD8+ and CD4+ T cells (autologous CD3+ Pan-T cells isolated from human normal PBMCs); assay: Exogenous autologous normal donor restimulation assay (15-mer overlapping peptide pools on CD1c+ dendritic cells, TNFα/IFNγ flow cytometry); type: cell-based; settings: Table 25, 15-mer overlapping peptide pool
Summary of the method: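 Autologous CD3+ Pan-T cells from normal donors were co-cultured 12 days with irradiated CD1c+ DCs pulsed with 15-mer overlapping neoantigen peptide pools at 2.5–10 μg/mL, with IL-15 and IL-2 support. Cells were restimulated on day 11, then TNFα/IFNγ double-positive CD8+ and CD4+ frequencies read by flow. Positive means ≥3-fold over DMSO and ≥0.01%.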

[2] = system: CD8+ and CD4+ T cells (autologous CD3+ Pan-T cells isolated from human normal PBMCs); assay: Endogenous autologous normal donor restimulation assay (Ad5-transduced CD1c+ dendritic cells, TNFα/IFNγ flow cytometry); type: cell-based; settings: Table 27, endogenous expression, peptide pool restimulation, highest across sixteen normal donors
Description: CD1c+ Dendritic Cells (DC) isolated from human normal PBMCs were thawed using media (IMDM (Gibco) supplemented with glutamine, HEPES, 5% human serum (Sigma), and 1×Pen-Strep). DC cells were resuspended in media supplemented with IL-4 (Peprotech, 80 ng/mL) and GM-CSF (Gibco, 80 ng/mL), plated in 6 well microplates, and rested overnight at 37° C. (5% CO2). The following day, DC cells were counted and plated in a 96 well round bottom microplate at a concentration of 30,000 viable cells per well. Ad5 vectors (Vector Biolabs) were dilute in media to an MOI (Multiplicity Of Infection) of 5000 based on Plaque Forming Units. Ad5 vectors for the CEF pool and a “null” were used as controls. DCs were transduced with Ad5 vectors overnight at 37° C. (5% CO2). The following day, the Ad5 vectors were washed off the plate by three sequential centrifugation/aspiration steps using sterile Phosphate Buffered Saline. After the final wash, transduced DCs were resuspended in 100 μL media. Autologous CD3+ Pan-T cells isolated from human normal PBMCs were thawed using media. Pan-T cells were added to the irradiated DCs at 300,000 viable cells per well (100 μL/well). Human IL-15 (Peprotech) was added to all wells at final concentration of 10 ng/mL.
Plates were incubated at 37° C. (5% CO2) for a total of 12 days. Media was refreshed every 2-3 days with IL-15 (10 ng/mL final concentration) and IL-2 (R&D systems, 10 IU/mL final concentration). On day 11 lyophilized peptides (15-mer overlapping peptides) were solubilized in 100% DMSO and pooled by neoantigen to between 5 mg/mL and 20 mg/mL. Neoantigen peptides pools were added to cells for a final concentration of 2.5 μg/mL to 10 μg/mL. CEF Peptide Pool “Plus” (Cellular Technologies, Ltd.) was utilized as a positive control and DMSO at the same final concentration as the experimental peptides was utilized as a negative control. Protein Inhibitor Cocktail (eBioscience) was added to every well and plate was incubated overnight at 37° C. (5% CO2).
(§1) On day 12, cells were stained for intracellular flow cytometry analysis. The cells were washed with PBS and stained with Live/Dead Fixable Aqua Dead Cell stain (Thermo-Fisher). Following the live/dead stain, cells were blocked using Biotin-Free Fc Receptor Blocker (Accurate Chemical & Scientific Corp). Extracellular cellular flow panel ([…] per well in 50 μL) consisted of CD3 PerCP-Cy5.5 (Biolegend), CD4 BV421 (Biolegend), and CD8 APC-Cy7 (Biolegend). After extracellular staining, cells were fixed using Foxp3/fTranscription Factor Staining Buffer Set (eBioscience) and stained for intracellular proteins (1:50 dilution) using TNFα FITC (R&D Systems) and IFNγ BV785 (Biolegend). Cells were washed and resuspended in stain buffer and analyzed using a BD Celesta flow cytometer.
Flow cytometry cell staining analysis was completed using FlowJo v10. Cells were gated on live, singlet, CD3+ cells. The CD8+ and CD4+ T cells were analyzed for TNFα/IFNγ expression and the frequency of double positive TNFα/IFNγ CD8+ and the frequency of double positive TNFα/IFNγ CD4+ T cells were recorded. Responses were assessed to be positive when the frequency of double positive TNFα/IFNγ CD8+ or TNFα/IFNγ CD4+ T cells due to stimulation with an experimental peptide pool was increased greater than or equal to 3-fold over the DMSO only negative control for that donor and at least 0.01%.
For three of the neoantigens, an Ad5 vector was designed to transduce normal Dendritic cells with the neoantigens. This assay assessed the ability of the endogenously expressed and presented neoantigens to activate autologous T cells following overlapping 15-mer peptide pools restimulation using the endogenous autologous normal donor restimulation assay described in Example 1 utilizing TNFα and IFNγ production by CD8^+ and CD4^+ T cells as a readout. […] Sixteen donors were used to assess endogenous immunogenicity.

HLA-A*24:02 = HLA-A*24:02 (Homo sapiens, UniProt P04439, D101N/D140Y/D185E/E176V/E190D/F33S/G103R/G107R/I119L/I121M/I306V/K335N/L105A/L180Q/L300P/N151K/N90K/Q86E/Q94H/R106L/R138H/R89G/T104I/T345S/V100E/W191G/Y123F); assay: In vitro binding of neoantigens to class I MHC (UV peptide exchange, HLA class I ELISA); settings: 100% = same binding as positive control peptide
Description: (§2) The 9 mer peptides identified by bioinformatics analysis were analyzed for their binding propensities to 6 common HLA class I alleles (HLA-A*01:01, A*02:01, A*03:01, A*24:02, B*07:02, B*08:01). The principle of the method is briefly described below and consists of two parts, one involving exchange of peptide with a positive control induced by Ultraviolet (UV) radiation, and the second is an enzyme immunoassay to detect stable HLA-peptide and empty HLA complexes.
(§3) HLA-bound peptides are critical for the stability of the HLA complex. A conditional HLA class I complex was stabilized by an UV-labile peptide utilizing a different peptide (Pos) for each HLA (Pos: HLA-A*01:01: […](SEQ ID NO: 409), HLA-A*02:01: […] (SEQ ID NO: 410), HLA-A*03:01: […] (SEQ ID NO: 411), HLA-A*24:02: […] (SEQ ID NO: 412), HLA-B*07:02: […] (SEQ ID NO: 413), HLA-B*08:01: […] (SEQ ID NO: 414), which could be cleaved by UV irradiation when bound to the HLA molecule. Upon cleavage, the resulting peptide fragments dissociated from the HLA class I complex since their length was insufficient to bind stably to HLA. Under the conditions in which peptide cleavage was performed (neutral pH, on melting ice), the peptide-free HLA complex remained stable.
(§4) The exchange efficiency between the peptide of interest and Pos was analyzed using an HLA class I ELISA. The combined technologies allowed the identification of ligands for an HLA molecule of interest which are potentially immunogenic.
(§5) Exchange control peptide Pos was a high affinity binder to the relevant HLA class I allele while exchange control peptide Neg was a non-binder. The UV control represented UV-irradiation of conditional HLA class I complex in the absence of a rescue peptide.
(§6) The HLA class I ELISA is an enzyme immunoassay based on the detection of beta2-microglobulin (B2M) of (peptide-stabilized) HLA class I complexes. To this end streptavidin was bound onto polystyrene microtiter wells. After washing and blocking, HLA complex present in exchange reaction mixtures or ELISA controls was captured by the streptavidin on the microtiter plate via its biotinylated heavy chain. Non-bound material was removed by washing. Subsequently, horseradish peroxidase (HRP)-conjugated antibody to human B2M was added. The HRP-conjugated antibody binds only to an intact HLA complex present in the microtiter well because unsuccessful peptide exchange results in disintegration of the original UV-sensitive HLA complex upon UV illumination. In the latter case B2M was removed during the washing step. After removal of non-bound HRP conjugate by washing, a substrate solution was added to the wells. A coloured product formed in proportion to the amount of intact HLA complex present in the samples. After the reaction was terminated by the addition of a stop solution, absorbance was measured in a microtiter plate reader. The absorbance was normalized to the absorbance of an exchange control peptide (represents 100%). Suboptimal HLA binding of peptides with a moderate to low affinity for HLA class I molecules can also be detected by this ELISA technique (Rodenko, B et al. (2006) Nature Protocols 1: 1120-32).
(§7) Peptides that had 10% or greater exchange efficiency in one of the 6 HLA alleles were considered for further immunogenicity testing and analysis.
(§8) Binding of select neoepitopes to HLA-A*01:01, HLA-A*02:01, HLA-A*03:01, HLAA*24:02, HLAAB*07:02 and HLA-B*08:01 was evaluated using the assay described in Example 1. […] As a criterion for further evaluation, peptides with an exchange rate of at least 10% with the corresponding Pos peptide for at least one of the 6 HLA alleles that we considered for further evaluation. The exchange rates with the allele specific Pos peptides, of the 24 neoantigens so identified are summarized below in Table 17. Higher percentages correspond to stronger binding to the HLA allele. […]

HLA-A*01:01 = HLA-A*01:01 (Homo sapiens, UniProt P04439, A114D/A174V/A182V/D101N/D185E/E176A/E190D/L180R/Q94H/R68K/S129P/T187R/V100A/V91M/W191G); assay: as above; settings: 100% = same binding as positive control peptide
Description: as §2, §3, §4, §5, §6, §7, §8

HLA-A*02:01 = HLA-A*02:01 (Homo sapiens, UniProt P04439, D140Y/D185E/D98H/E176V/E277Q/G131W/G231S/I119V/I121R/I166T/I218V/L300P/L318F/N151K/N90K/P208A/P217A/Q86G/Q94H/R138H/R169H/T345S); assay: as above; settings: 100% = same binding as positive control peptide
Description: as §2, §3, §4, §5, §6, §7, §8

HLA-B*07:02 = HLA-B*07:02 (Homo sapiens, UniProt P01889); assay: as above; settings: 100% = same binding as positive control peptide
Description: as §2, §3, §4, §5, §6, §7, §8

HLA-A*03:01 = HLA-A*03:01 (Homo sapiens, UniProt P04439); assay: as above; settings: 100% = same binding as positive control peptide
Description: as §2, §3, §4, §5, §6, §7
Binding of select neoepitopes to HLA-A*01:01, HLA-A*02:01, HLA-A*03:01, HLAA*24:02, HLAAB*07:02 and HLA-B*08:01 was evaluated using the assay described in Example 1. […] As a criterion for further evaluation, peptides with an exchange rate of at least 10% with the corresponding Pos peptide for at least one of the 6 HLA alleles that we considered for further evaluation. The exchange rates with the allele specific Pos peptides, of the 24 neoantigens so identified are summarized below in Table 17. Higher percentages correspond to stronger binding to the HLA allele.

[3] = system: CD8+ T cells in PBMCs from human patients with metastatic castrate-resistant prostate cancer; assay: Patient PBMC restimulation assay (in vitro immunogenicity, TNFα/IFNγ intracellular flow cytometry); type: cell-based; settings: 9-mer peptide
Description: PBMCs from human patients with metastatic castrate-resistant prostate cancer were thawed using media (RPMI 1640 supplemented with Glutamax, 10% HI FBS, and 1× Sodium Pyruvate). Cells were counted and plated in a 96 well round bottom microplate at a concentration of 250,000 viable cells per well. Lyophilized peptides were solubilized in 100% DMSO and diluted in media to 10 μg/mL. Neoantigen peptides were added in equal volume to PBMCs for a final concentration of 5 μg/mL. CEF Peptide Pool “Plus” (Cellular Technologies, Ltd.) was utilized as a positive control and DMSO at the same final concentration as the experimental peptides was utilized as a negative control. Human IL-15 (Peprotech) was added to all wells at final concentration of 10 ng/mL.
Plates were incubated at 37° C. (5% CO2) for a total of 13 days. Media was refreshed every 2 days with IL-15 (10 ng/mL final concentration) and IL-2 (R&D systems, 10 IU/mL final concentration). On day 12, PBMCs were re-stimulated with identical experimental peptides or controls, at same concentration as peptide stimulation on Day 1. After 1-hour incubation, protein Inhibitor Cocktail (eBioscience) was added to every well and plate was incubated overnight.
as §1, with “13,” for “12,”
Flow cytometry cell staining analysis was completed using FlowJo v10. Cells were gated on live, singlet, CD3+ cells. The CD8+ T cells were analyzed for TNFα/IFNγ expression and the frequency of double positive TNFα/IFNγ CD8+ T cells was recorded. Responses were assessed to be positive when the frequency of double positive TNFα/IFNγ CD8+ T cells due to stimulation with an experimental peptide was increased greater than or equal to 2-fold over the DMSO only negative control for that patient. Peptides were analyzed in 1 to 7 patient samples.
The 9 mer fragments shown in Table 13 were assessed for their ability to activate T cells using the Patient PBMC restimulation assay described in Example 1 using TNFα and IFNγ production by CD8^+ T cells as a readout. Self-antigens shown in Table 15 were also used in the assays. […] PBMCs from ten patients were evaluated.

[4] = highest frequency across normal donors

DGHSYTSKVNCLLLQDGFHGCVSITGAAGRRNLSIFLFLMLCKLEFHAC (listed as Homo sapiens) [AS55, SPOCK1 alternative splicing]
Maximum Fold Change Over Background CD4+ cells ([1]; TNFα+IFNγ+ CD4+ T cells, highest fold change over negative control across normal donors): 19.38 | Maximum Fold Change Over Background CD8+ cells ([1]; TNFα+IFNγ+ CD8+ T cells, highest fold change over negative control across normal donors): 1354.17 | Maximum Frequency of TNFα/IFNγ Double Positive CD4+ T cells [1, 4]: 0.310 | Maximum Frequency of TNFα/IFNγ Double Positive CD8+ T cells [1, 4]: 32.500 | Maximum Fold Change Over Background CD4+ cells [2]: 3.50 | Maximum Fold Change Over Background CD8+ cells [2]: 213.88 | Maximum Frequency of TNFα/IFNγ Double Positive CD4+ T cells [2]: 0.063 | Maximum Frequency of TNFα/IFNγ Double Positive CD8+ T cells [2]: 2.05

P76 (YCMAAPMGL) [Peptide P76]
Exchange rate with allele specific Pos peptide, HLA-A*24:02 (HLA-A*24:02): −0.5% | Exchange rate with allele specific Pos peptide, HLA-A*01:01 (HLA-A*01:01): 0.1% | Exchange rate with allele specific Pos peptide, HLA-A*02:01 (HLA-A*02:01): 85.9% | Exchange rate with allele specific Pos peptide, HLA-B*07:02 (HLA-B*07:02): 91.5% | Exchange rate with allele specific Pos peptide, HLA-A*03:01 (HLA-A*03:01): 6% | Maximum frequency of TNFα^+IFNγ^+CD8^+ T cells (Percent) ([3]; greatest frequency among all tested PBMC donors): 0.170% | Immunogenic ([3]; patient PBMC restimulation): Yes
